According to patent US10064873B2, “Compounds and compositions for treating HIV with derivatives of Betulin” (GlaxoSmithKline LLC, priority 2011, dated 2018):

system: HIV NL4-3 wt; assay: MT4 antiviral assay, NL4-3 strain wild type; assay type: cell-based, HIV-1; details: Human immunodeficiency virus 1, NL43; MT4 cells; read-out: EC50 NL4-3 wt

Row | Structure (SMILES) | EC50 [nM]
1 | CC(C)C1=C2[C@H]3CC[C@@H]4[C@@]5(C)CC[C@H](OC(=O)CC(C)(C)C(=O)O)C(C)(C)[C@@H]5CC[C@@]4(C)[C@]3(C)CC[C@@]2([C@@H](O)CN2CCc3ccccc3C2)CC1=O [Example 63, 4-(((3aR,5aR,5bR,7aR,9S,11aR,11bR,13aS)-3a-((R)-2-(3,4-dihydroisoquinolin-2(1H)-yl)-1-hydroxyethyl)-1-isopropyl-5a,5b,8,8,11a-pentamethyl-2-oxo-3,3a,4,5,5a,5b,6,7,7a,8,9,10,11,11a,11b,12,13,13a-octadecahydro-2H-cyclopenta[a]chrysen-9-yl)oxy)-2,2-dimethyl-4-oxobutanoic acid] | 3.2
2 | CC(C)C1=C2[C@H]3CC[C@@H]4[C@@]5(C)CC[C@H](OC(=O)CC(C)(C)C(=O)O)C(C)(C)[C@@H]5CC[C@@]4(C)[C@]3(C)CC[C@@]2([C@H](O)CN2CCc3ccccc3C2)CC1=O [Example 64, 4-(((3aR,5aR,5bR,7aR,9S,11aR,11bR,13aS)-3a-((S)-2-(3,4-dihydroisoquinolin-2(1H)-yl)-1-hydroxyethyl)-1-isopropyl-5a,5b,8,8,11a-pentamethyl-2-oxo-3,3a,4,5,5a,5b,6,7,7a,8,9,10,11,11a,11b,12,13,13a-octadecahydro-2H-cyclopenta[a]chrysen-9-yl)oxy)-2,2-dimethyl-4-oxobutanoic acid] | 7.2
3 | CC(C)C1=C2[C@H]3CC[C@@H]4[C@@]5(C)CC[C@H](OC(=O)CC(C)(C)C(=O)O)C(C)(C)[C@@H]5CC[C@@]4(C)[C@]3(C)CC[C@@]2(CCNCc2ccc(Cl)cc2)CC1 [Example 66, 4-(((3aR,5aR,5bR,7aR,9S,11aR,11bR,13aS)-3a-(2-((4-chlorobenzyl)amino)ethyl)-1-isopropyl-5a,5b,8,8,11a-pentamethyl-3,3a,4,5,5a,5b,6,7,7a,8,9,10,11,11a,11b,12,13,13a-octadecahydro-2H-cyclopenta[a]chrysen-9-yl)oxy)-2,2-dimethyl-4-oxobutanoic acid] | 9.2
4 | CC(C)C1=C2[C@H]3CC[C@@H]4[C@@]5(C)CC[C@H](OC(=O)CC(C)(C)C(=O)O)C(C)(C)[C@@H]5CC[C@@]4(C)[C@]3(C)CC[C@@]2([C@H](O)CNCC2CCCCC2)CC1 [Example 67, 4-(((3aS,5aR,5bR,7aR,9S,11aR,11bR,13aS)-3a-((S)-2-((cyclohexylmethyl)amino)-1-hydroxyethyl)-1-isopropyl-5a,5b,8,8,11a-pentamethyl-3,3a,4,5,5a,5b,6,7,7a,8,9,10,11,11a,11b,12,13,13a-octadecahydro-2H-cyclopenta[a]chrysen-9-yl)oxy)-2,2-dimethyl-4-oxobutanoic acid] | 136
5 | CC(C)C1=C2[C@H]3CC[C@@H]4[C@@]5(C)CC[C@H](OC(=O)CC(C)(C)C(=O)O)C(C)(C)[C@@H]5CC[C@@]4(C)[C@]3(C)CC[C@@]2([C@H](O)CNC2CCCCC2)CC1=O [Example 68, 4-(((3aR,5aR,5bR,7aR,9S,11aR,11bR,13aS)-3a-((S)-2-(cyclohexylamino)-1-hydroxyethyl)-1-isopropyl-5a,5b,8,8,11a-pentamethyl-2-oxo-3,3a,4,5,5a,5b,6,7,7a,8,9,10,11,11a,11b,12,13,13a-octadecahydro-2H-cyclopenta[a]chrysen-9-yl)oxy)-2,2-dimethyl-4-oxobutanoic acid] | 10.5
6 | CC(=O)O[C@H](CN(CCN(C)C)Cc1ccc(F)cc1)[C@@]12CC[C@]3(C)[C@H](CC[C@@H]4[C@@]5(C)CC[C@H](OC(=O)CC(C)(C)C(=O)O)C(C)(C)[C@@H]5CC[C@]43C)C1=C(C(C)C)C(=O)C2 [Example 70, 4-(((3aR,5aR,5bR,7aR,9S,11aR,11bR,13aS)-3a-((S)-1-acetoxy-2-((2-(dimethylamino)ethyl)(4-fluorobenzyl)amino)ethyl)-1-isopropyl-5a,5b,8,8,11a-pentamethyl-2-oxo-3,3a,4,5,5a,5b,6,7,7a,8,9,10,11,11a,11b,12,13,13a-octadecahydro-2H-cyclopenta[a]chrysen-9-yl)oxy)-2,2-dimethyl-4-oxobutanoic acid] | 1.6
7 | CC(=O)O[C@@H](CN(CCN(C)C)Cc1ccc(F)cc1)[C@@]12CC[C@]3(C)[C@H](CC[C@@H]4[C@@]5(C)CC[C@H](OC(=O)CC(C)(C)C(=O)O)C(C)(C)[C@@H]5CC[C@]43C)C1=C(C(C)C)C(=O)C2 [Example 71, 4-(((3aR,5aR,5bR,7aR,9S,11aR,11bR,13aS)-3a-((R)-1-acetoxy-2-((2-(dimethylamino)ethyl)(4-fluorobenzyl)amino)ethyl)-1-isopropyl-5a,5b,8,8,11a-pentamethyl-2-oxo-3,3a,4,5,5a,5b,6,7,7a,8,9,10,11,11a,11b,12,13,13a-octadecahydro-2H-cyclopenta[a]chrysen-9-yl)oxy)-2,2-dimethyl-4-oxobutanoic acid] | 31.2
8 | CC(C)C1=C2[C@H]3CC[C@@H]4[C@@]5(C)CC[C@H](OC(=O)CC(C)(C)CC(=O)O)C(C)(C)[C@@H]5CC[C@@]4(C)[C@]3(C)CC[C@@]2([C@@H](O)CNCc2ccc(Cl)cc2)CC1=O [Example 72, 5-(((3aR,5aR,5bR,7aR,9S,11aR,11bR,13aS)-3a-((R)-2-((4-chlorobenzyl)amino)-1-hydroxyethyl)-1-isopropyl-5a,5b,8,8,11a-pentamethyl-2-oxo-3,3a,4,5,5a,5b,6,7,7a,8,9,10,11,11a,11b,12,13,13a-octadecahydro-2H-cyclopenta[a]chrysen-9-yl)oxy)-3,3-dimethyl-5-oxopentanoic acid] | 5.1
9 | CC(C)C1=C2[C@H]3CC[C@@H]4[C@@]5(C)CC[C@H](OC(=O)CC(C)(C)CC(=O)O)C(C)(C)[C@@H]5CC[C@@]4(C)[C@]3(C)CC[C@@]2([C@H](O)CNCc2ccc(Cl)cc2)CC1=O [Example 73, 5-(((3aR,5aR,5bR,7aR,9S,11aR,11bR,13aS)-3a-((S)-2-((4-chlorobenzyl)amino)-1-hydroxyethyl)-1-isopropyl-5a,5b,8,8,11a-pentamethyl-2-oxo-3,3a,4,5,5a,5b,6,7,7a,8,9,10,11,11a,11b,12,13,13a-octadecahydro-2H-cyclopenta[a]chrysen-9-yl)oxy)-3,3-dimethyl-5-oxopentanoic acid] | 31.8
10 | CC(C)C1=C2[C@H]3CC[C@@H]4[C@@]5(C)CC[C@H](OC(=O)CC(C)(C)C(=O)O)C(C)(C)[C@@H]5CC[C@@]4(C)[C@]3(C)CC[C@@]2([C@H](O)CN(CCN(C)C)Cc2ccc(Cl)cc2Cl)CC1=O [Example 74, 4-(((3aR,5aR,5bR,7aR,9S,11aR,11bR,13aS)-3a-((S)-2-((2,4-dichlorobenzyl)(2-(dimethylamino)ethyl)amino)-1-hydroxyethyl)-1-isopropyl-5a,5b,8,8,11a-pentamethyl-2-oxo-3,3a,4,5,5a,5b,6,7,7a,8,9,10,11,11a,11b,12,13,13a-octadecahydro-2H-cyclopenta[a]chrysen-9-yl)oxy)-2,2-dimethyl-4-oxobutanoic acid] | 2.9
11 | CC(C)C1=C2[C@H]3CC[C@@H]4[C@@]5(C)CC[C@H](OC(=O)CC(C)(C)C(=O)O)C(C)(C)[C@@H]5CC[C@@]4(C)[C@]3(C)CC[C@@]2([C@@H](O)CN(CCN(C)C)Cc2ccc(F)cc2)CC1=O [Example 76, 4-(((3aR,5aR,5bR,7aR,9S,11aR,11bR,13aS)-3a-((R)-2-((2-(dimethylamino)ethyl)(4-fluorobenzyl)amino)-1-hydroxyethyl)-1-isopropyl-5a,5b,8,8,11a-pentamethyl-2-oxo-3,3a,4,5,5a,5b,6,7,7a,8,9,10,11,11a,11b,12,13,13a-octadecahydro-2H-cyclopenta[a]chrysen-9-yl)oxy)-2,2-dimethyl-4-oxobutanoic acid] | 0.7
